Results published in patent US8044098B2, “Use of hydroxybenzoic acids and their esters and analogues for preventing or treating virus infection” (Shenghua Guangzhou Pharmaceutical Science & Technology Co., …, priority 2005, dated 2011).

Legend:
flat warts = test: Clinical use in treating flat warts; type: in vivo, human
Description: 5 g propyl gallate was mixed with 40 ml 1,2-propylene glycol and heated to dissolve the ingredients. Then 20 ml Tween-80 and 3 ml azone were added into the mixture and mixed well. Sterile distilled water was added to the mixture to reach a final volume of 100 ml.
Clinically, flat warts were seen as slightly raised, smooth, tan or flesh colored bumps ranging in size from 1-5 mm. They typically appeared on the face, backs of hands and arms.
32 male and 28 female patients of 15-46 years old, with the average age of 23 years old, were selected for the test. These patients have had flat warts for any time from 2 weeks to 2 years. Some of the patients have tried other treatment methods for the warts. But no one had undertaken any treatment for the warts in the past 4 weeks. And no one had taken any medicine in the past 2 weeks.
The patients were randomly divided into two groups of 30 patients each. One group was treated with propyl gallate micro emulsion, the other group with 5% imiquimod cream (made by Sichuan Ming Xin Pharmaceutical Co.), which is a medicine often used for treating flat warts. The test samples were applied to the affected areas of the patient groups three times a day, in the morning, at noon and night. The treatment period was 20 days. The treatment effect was tracked for one year.
“Recovered”: all warts had disappeared or faded, the skin became flat, no new warts appeared;
“Obvious Effect”: more than 70% of the warts had disappeared, the bottom of the warts had shrunk, the top of the warts had flattened;
“Improved”: more than 30% of the warts had disappeared, the top of the warts had flattened;
“Not Effective”: less than 30% of the warts had disappeared, no change to the warts, or some new warts appeared.

HSV infection = test: External treatment of HSV infection in clinical tests; type: in vivo, human; conditions: patients with HSV infection
Text: Twenty-two patients who were clinically diagnosed with HSV infection were randomly selected and divided into two groups. Acyclovir ointment and micro emulsion containing propyl gallate prepared as described in Example 1 were applied to the two groups, respectively, on the affected areas of the patients three times a day.

[1] = number of patients of 30 per group, three times a day, 20 days

`CCCOC(=O)c1cc(O)c(O)c(O)c1` [Propyl gallate] was tested, and the “effectiveness in treating flat warts compared with 5% imiquimod cream” value (flat warts; 20 days treatment) was “more effective”, the “recurrence of the warts in recovered patients” value (flat warts; followed for a year) was “none had recurrence” and the Recovered (flat warts; number of patients of 30 per group, applied three times a day, 20 days) was 22. The Improved (flat warts; [1]) was 2, the “Not Effective” value (flat warts; [1]) was 1 and the “Obvious Effect” value (flat warts; [1]) was 5. For the same compound, the “Effective Rate” value (flat warts; patients recovered or with obvious effect, of 30 per group) was 90%, the “effectiveness in treating HSV infection compared with acyclovir ointment” value (HSV infection) was “more effective” and the “average time for recovery” value (HSV infection; applied on affected areas three times a day) was 3 days.
